Measured values reported in ChEMBL document CHEMBL1137334 (J Med Chem, 2006).
Values after ≈ are worked out from the molar mass of the structure shown.

Legend:
[1] = system: A549; assay: Inhibition of A549 cell migration by microdroplet migration assay; assay type: functional, cell-based; settings: Homo sapiens
[2] = species on record: Canis familiaris; assay: (§1) Volume of distribution in male dog; assay type: ADME, organism-based, Canis lupus familiaris; settings: in vivo
[3] = AUC (0-24h) in mouse at 20 mg/kg, po; assay type: ADME, organism-based; set-up: time < 24 hr, dose 20 mg/kg, route oral; settings: plasma
[4] = Clearance in female rat at 20 mg/kg, po and 2 mg/kg, iv; assay type: ADME, organism-based; settings: in vivo
[5] = target: Vascular endothelial growth factor receptor 2 (Homo sapiens, UniProt P35968); assay: Inhibition of KDR
[6] = species on record: Canis familiaris; assay: (§2) Half life in male dog; assay type: ADME, organism-based, Canis lupus familiaris; settings: in vivo
[7] = Bioavailability in female rat at 20 mg/kg, po and 2 mg/kg, iv; assay type: ADME, organism-based; settings: in vivo
[8] = Volume of distribution in female rat at 20 mg/kg, po and 2 mg/kg, iv; assay type: ADME, organism-based; settings: in vivo, read-out: Vdss
[9] = target: Proto-oncogene tyrosine-protein kinase Src (Homo sapiens, UniProt P12931)
Description: Inhibition of human c-Src in NIH3T3 cells

[10] = Bioavailability in male dog; assay type: ADME, organism-based, Canis lupus familiaris; settings: in vivo
[11] = target: Tyrosine-protein kinase Yes (Homo sapiens, UniProt P07947); assay: Inhibition of recombinant C-YES by ELISA
[12] = Permeability from apical to basolateral side of NIH 3T3 cell; assay type: ADME, cell-based, NIH3T3; settings: mouse, not told; read-out: permeability
[13] = target: Fibroblast growth factor receptor 1 (Homo sapiens, UniProt P11362); assay: Inhibition of recombinant FGFR1 by ELISA
[14] = as §1; assay type: ADME, organism-based, Canis lupus familiaris; settings: male, in vivo, read-out: Vdss
[15] = Lipophilicity, log D at pH 7.4; assay type: physicochemical; settings: buffer
[16] = Dissociation constant, pKa of the basic side chain of compound; assay type: physicochemical
[17] = target: Tyrosine-protein kinase CSK (Homo sapiens, UniProt P41240); assay: Inhibition of recombinant CSK by ELISA
[18] = target: Aurora kinase B (Homo sapiens, UniProt Q96GD4); assay: Inhibition of recombinant Aurora B by ELISA
[19] = Percent of unbound ligand in rat plasma; assay type: ADME, organism-based
[20] = target: Glycogen synthase kinase-3 beta (Homo sapiens, UniProt P49841); assay: Inhibition of GSK3-beta
[21] = Half life in rat at 20 mg/kg, po and 2 mg/kg, iv; assay type: ADME, organism-based; settings: in vivo
[22] = Bioavailability in rat at 20 mg/kg, po and 2 mg/kg, iv; assay type: ADME, organism-based; settings: in vivo
[23] = Clearance in male dog; assay type: ADME, organism-based, Canis lupus familiaris; settings: in vivo
[24] = target: Protein kinase C alpha type (Homo sapiens, UniProt P17252); assay: Inhibition of PKCalpha
[25] = Inhibition of PI3K; set-up: species or system Homo sapiens
[26] = target: Vascular endothelial growth factor receptor 3 (Homo sapiens, UniProt P35916); assay: Inhibition of FLT4 by ELISA
[27] = as §2; assay type: ADME, organism-based, Canis lupus familiaris; settings: male, in vivo
[28] = target: Vascular endothelial growth factor receptor 1 (Homo sapiens, UniProt P17948); assay: Inhibition of recombinant FLT1 by ELISA
[29] = target: Cyclin-dependent kinase 2 (Homo sapiens, UniProt P24941); assay: Inhibition of CDK2 by SPA
[30] = system: NIH3T3; assay: Antiproliferative activity against NIH 3T3 cells xenografted in athymic rat measured as inhibition of tumor volume at 10 mg/kg/day after 18 days; assay type: functional; settings: NIH3T3, 432 h
[31] = Inhibition of Chk; set-up: species or system Homo sapiens
[32] = Clearance in rat at 20 mg/kg, po and 2 mg/kg, iv; assay type: ADME, organism-based; settings: in vivo
[33] = target: 3-phosphoinositide-dependent protein kinase 1 (Homo sapiens, UniProt O15530); assay: Inhibition of PDK
[34] = target: c-Jun N-terminal kinase, JNK (Homo sapiens, UniProt P45983+P53779+P45984); assay: Inhibition of JNK; assay type: protein assay
[35] = Volume of distribution in rat at 20 mg/kg, po and 2 mg/kg, iv; assay type: ADME, organism-based; settings: in vivo, read-out: Vdss
[36] = Percent of unbound ligand in dog plasma; assay type: ADME, organism-based, Canis lupus familiaris
[37] = Aqueous solubility at pH 7.4; assay type: physicochemical
[38] = target: cAMP-dependent protein kinase (PKA) (Homo sapiens, UniProt P22694+P17612+P22612); assay: Inhibition of PKA; assay type: protein assay
[39] = target: Platelet-derived growth factor receptor alpha (Homo sapiens, UniProt P16234); assay: Inhibition of recombinant PDGFRalpha by ELISA
[40] = (§3) Half life in rat at 25 mg/kg, po and 2 mg/kg, iv; assay type: ADME, organism-based; settings: in vivo
[41] = Terminal half life in po dosed human; assay type: ADME, organism-based; settings: in vivo, read-out: beta t1/2 (converted)
[42] = system: HUVEC; assay: Inhibition of FGF-stimulated HUVEC cell growth; assay type: functional, cell-based; settings: Homo sapiens
[43] = system: A549; assay: Inhibition of paxillin phosphorylation in A549 cells by Western blotting at 1 uM; assay type: functional; settings: Homo sapiens
[44] = Aqueous solubility at pH 7.0; assay type: physicochemical
[45] = Clearance in male rat at 25 mg/kg, po and 2 mg/kg, iv; assay type: ADME, organism-based; settings: in vivo
[46] = system: HUVEC; assay: Inhibition of VEGF-stimulated HUVEC cell growth; assay type: functional, cell-based; settings: Homo sapiens
[47] = target: Dual specificity mitogen-activated protein kinase kinase; MEK1/2 (Homo sapiens, UniProt P36507+Q02750); assay: Inhibition of MAPKK; assay type: protein assay
[48] = system: Calu-6; assay: Inhibition of paxillin phosphorylation in Calu-6 xenograft tumor model at 20 mg/kg/day, po; assay type: functional; settings: Homo sapiens
[49] = Volume of distribution in male rat at 25 mg/kg, po and 2 mg/kg, iv; assay type: ADME, organism-based; settings: in vivo, read-out: Vdss
[50] = Clearance in female rat at 25 mg/kg, po and 2 mg/kg, iv; assay type: ADME, organism-based; settings: in vivo
[51] = Percent of unbound ligand in human plasma; assay type: ADME, organism-based
[52] = Bioavailability in male rat at 25 mg/kg, po and 2 mg/kg, iv; assay type: ADME, organism-based; settings: in vivo
[53] = system: Calu-6; assay: Inhibition of FAK phosphorylation in Calu-6 xenograft tumor model at 20 mg/kg/day, po; assay type: functional; settings: Homo sapiens
[54] = Bioavailability in female rat at 25 mg/kg, po and 2 mg/kg, iv; assay type: ADME, organism-based; settings: in vivo
[55] = Volume of distribution in female rat at 25 mg/kg, po and 2 mg/kg, iv; assay type: ADME, organism-based; settings: in vivo, read-out: Vdss
[56] = system: NIH3T3; assay: Antiproliferative activity against NIH 3T3 cells xenografted in athymic rat measured as inhibition of tumor volume at 6 mg/kg/day after 18 days; assay type: functional; settings: NIH3T3, 432 h
[57] = as §3; assay type: ADME, organism-based; settings: in vivo; remark: listed apart in the source
[58] = system: K562; assay: Antiproliferative activity against huamn K562 cell line; assay type: functional, cell-based; settings: Homo sapiens

Sequence of Vascular endothelial growth factor receptor 2 (P35968 whole entry): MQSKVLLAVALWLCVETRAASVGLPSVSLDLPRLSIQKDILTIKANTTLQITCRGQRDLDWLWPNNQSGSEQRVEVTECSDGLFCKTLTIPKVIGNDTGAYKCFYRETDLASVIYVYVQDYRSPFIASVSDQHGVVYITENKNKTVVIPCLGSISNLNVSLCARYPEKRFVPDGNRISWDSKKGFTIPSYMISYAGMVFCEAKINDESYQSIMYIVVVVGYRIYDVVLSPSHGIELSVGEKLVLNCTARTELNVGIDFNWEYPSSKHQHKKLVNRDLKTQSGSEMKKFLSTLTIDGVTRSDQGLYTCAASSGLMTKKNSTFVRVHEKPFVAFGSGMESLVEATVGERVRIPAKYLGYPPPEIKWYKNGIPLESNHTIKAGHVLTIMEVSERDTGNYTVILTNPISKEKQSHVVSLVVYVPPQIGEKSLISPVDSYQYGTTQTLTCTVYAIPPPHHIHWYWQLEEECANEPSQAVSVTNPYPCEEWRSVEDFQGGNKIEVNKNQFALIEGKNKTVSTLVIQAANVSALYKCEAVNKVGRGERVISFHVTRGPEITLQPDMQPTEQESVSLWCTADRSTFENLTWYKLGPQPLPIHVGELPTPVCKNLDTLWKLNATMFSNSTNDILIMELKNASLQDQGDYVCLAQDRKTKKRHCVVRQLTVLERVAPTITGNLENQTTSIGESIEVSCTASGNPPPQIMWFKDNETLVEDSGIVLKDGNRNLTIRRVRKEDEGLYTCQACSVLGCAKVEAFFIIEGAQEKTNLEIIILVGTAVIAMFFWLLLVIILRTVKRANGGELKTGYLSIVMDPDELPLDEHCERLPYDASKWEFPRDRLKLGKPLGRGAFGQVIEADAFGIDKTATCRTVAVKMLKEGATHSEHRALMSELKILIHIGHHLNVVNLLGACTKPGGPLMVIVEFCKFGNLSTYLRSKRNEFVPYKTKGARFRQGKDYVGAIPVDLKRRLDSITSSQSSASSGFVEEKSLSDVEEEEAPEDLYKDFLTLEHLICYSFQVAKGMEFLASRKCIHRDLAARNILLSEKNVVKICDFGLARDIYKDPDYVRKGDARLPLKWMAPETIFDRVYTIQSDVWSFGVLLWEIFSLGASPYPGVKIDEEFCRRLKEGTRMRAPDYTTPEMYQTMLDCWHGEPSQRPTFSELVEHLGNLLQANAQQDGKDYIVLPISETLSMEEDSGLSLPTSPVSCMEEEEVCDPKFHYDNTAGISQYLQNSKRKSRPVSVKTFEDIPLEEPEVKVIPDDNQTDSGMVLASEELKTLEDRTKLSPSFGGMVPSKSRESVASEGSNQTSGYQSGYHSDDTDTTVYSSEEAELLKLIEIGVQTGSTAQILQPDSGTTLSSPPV
Sequence of Tyrosine-protein kinase CSK (P41240 whole entry): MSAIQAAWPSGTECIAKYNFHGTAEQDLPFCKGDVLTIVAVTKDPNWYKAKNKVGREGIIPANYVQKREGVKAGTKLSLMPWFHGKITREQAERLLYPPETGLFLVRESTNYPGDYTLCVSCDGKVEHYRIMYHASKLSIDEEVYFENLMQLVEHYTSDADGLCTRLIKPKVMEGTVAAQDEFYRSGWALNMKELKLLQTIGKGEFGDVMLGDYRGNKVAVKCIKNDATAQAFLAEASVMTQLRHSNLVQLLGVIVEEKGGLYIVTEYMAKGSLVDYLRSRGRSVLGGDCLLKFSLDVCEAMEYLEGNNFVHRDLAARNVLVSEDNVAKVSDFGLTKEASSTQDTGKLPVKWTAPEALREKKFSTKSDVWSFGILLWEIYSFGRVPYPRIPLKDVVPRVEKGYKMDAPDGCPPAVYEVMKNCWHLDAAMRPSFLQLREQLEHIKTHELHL
Sequence of Glycogen synthase kinase-3 beta (P49841 whole entry): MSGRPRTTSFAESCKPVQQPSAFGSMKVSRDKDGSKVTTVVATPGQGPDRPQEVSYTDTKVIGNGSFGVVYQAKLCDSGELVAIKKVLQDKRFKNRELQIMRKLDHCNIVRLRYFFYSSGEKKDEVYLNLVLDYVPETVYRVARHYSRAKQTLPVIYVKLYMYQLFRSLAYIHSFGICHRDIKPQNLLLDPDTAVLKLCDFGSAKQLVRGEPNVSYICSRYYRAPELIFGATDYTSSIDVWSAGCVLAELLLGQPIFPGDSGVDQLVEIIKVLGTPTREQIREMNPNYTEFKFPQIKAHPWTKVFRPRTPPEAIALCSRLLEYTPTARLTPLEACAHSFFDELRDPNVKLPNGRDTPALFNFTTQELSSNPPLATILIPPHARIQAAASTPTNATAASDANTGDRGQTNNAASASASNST
Sequence of Aurora kinase B (Q96GD4 whole entry): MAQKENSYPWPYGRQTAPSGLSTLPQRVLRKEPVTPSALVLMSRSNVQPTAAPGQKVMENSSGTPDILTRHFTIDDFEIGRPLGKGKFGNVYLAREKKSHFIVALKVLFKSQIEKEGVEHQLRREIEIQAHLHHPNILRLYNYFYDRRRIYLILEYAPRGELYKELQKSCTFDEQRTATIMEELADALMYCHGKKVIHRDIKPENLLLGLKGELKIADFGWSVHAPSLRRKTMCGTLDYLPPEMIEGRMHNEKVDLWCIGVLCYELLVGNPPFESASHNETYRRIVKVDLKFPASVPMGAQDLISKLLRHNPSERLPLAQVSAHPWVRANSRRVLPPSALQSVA
Sequence of Fibroblast growth factor receptor 1 (P11362 whole entry): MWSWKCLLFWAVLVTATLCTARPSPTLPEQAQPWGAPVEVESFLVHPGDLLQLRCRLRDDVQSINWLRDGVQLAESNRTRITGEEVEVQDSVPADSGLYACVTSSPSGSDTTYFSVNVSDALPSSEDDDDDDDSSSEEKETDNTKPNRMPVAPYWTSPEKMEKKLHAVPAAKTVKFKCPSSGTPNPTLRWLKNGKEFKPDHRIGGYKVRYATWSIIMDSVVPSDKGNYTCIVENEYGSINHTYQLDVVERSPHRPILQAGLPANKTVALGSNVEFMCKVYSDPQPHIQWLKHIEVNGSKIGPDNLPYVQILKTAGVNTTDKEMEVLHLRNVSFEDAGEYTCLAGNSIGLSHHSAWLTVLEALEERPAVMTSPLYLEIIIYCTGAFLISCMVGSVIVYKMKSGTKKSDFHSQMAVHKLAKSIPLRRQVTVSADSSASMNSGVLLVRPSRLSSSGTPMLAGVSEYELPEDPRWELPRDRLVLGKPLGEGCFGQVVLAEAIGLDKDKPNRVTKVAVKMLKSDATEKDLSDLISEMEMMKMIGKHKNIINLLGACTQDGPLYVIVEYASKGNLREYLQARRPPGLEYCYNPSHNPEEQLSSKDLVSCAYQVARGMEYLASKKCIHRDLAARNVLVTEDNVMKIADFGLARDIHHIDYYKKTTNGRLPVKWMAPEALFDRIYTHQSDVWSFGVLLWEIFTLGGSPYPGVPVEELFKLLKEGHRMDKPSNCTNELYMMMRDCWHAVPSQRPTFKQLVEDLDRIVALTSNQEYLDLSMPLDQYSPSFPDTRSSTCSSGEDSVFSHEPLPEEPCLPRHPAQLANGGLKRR
Sequence of Proto-oncogene tyrosine-protein kinase Src (P12931 2-536 limits assumed): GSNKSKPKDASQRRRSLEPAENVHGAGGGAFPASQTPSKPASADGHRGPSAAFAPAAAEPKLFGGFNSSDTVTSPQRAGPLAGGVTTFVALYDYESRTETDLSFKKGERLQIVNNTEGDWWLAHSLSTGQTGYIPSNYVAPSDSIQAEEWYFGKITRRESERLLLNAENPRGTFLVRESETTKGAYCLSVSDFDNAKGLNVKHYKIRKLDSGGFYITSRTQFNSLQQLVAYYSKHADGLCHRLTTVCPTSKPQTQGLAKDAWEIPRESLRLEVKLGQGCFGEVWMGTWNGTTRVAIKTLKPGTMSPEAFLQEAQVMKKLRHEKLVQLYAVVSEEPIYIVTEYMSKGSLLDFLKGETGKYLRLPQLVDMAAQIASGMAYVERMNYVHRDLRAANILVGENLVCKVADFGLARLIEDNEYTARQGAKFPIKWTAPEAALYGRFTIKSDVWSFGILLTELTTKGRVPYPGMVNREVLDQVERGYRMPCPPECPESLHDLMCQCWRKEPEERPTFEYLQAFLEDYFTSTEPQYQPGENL
Sequence of 3-phosphoinositide-dependent protein kinase 1 (O15530 whole entry): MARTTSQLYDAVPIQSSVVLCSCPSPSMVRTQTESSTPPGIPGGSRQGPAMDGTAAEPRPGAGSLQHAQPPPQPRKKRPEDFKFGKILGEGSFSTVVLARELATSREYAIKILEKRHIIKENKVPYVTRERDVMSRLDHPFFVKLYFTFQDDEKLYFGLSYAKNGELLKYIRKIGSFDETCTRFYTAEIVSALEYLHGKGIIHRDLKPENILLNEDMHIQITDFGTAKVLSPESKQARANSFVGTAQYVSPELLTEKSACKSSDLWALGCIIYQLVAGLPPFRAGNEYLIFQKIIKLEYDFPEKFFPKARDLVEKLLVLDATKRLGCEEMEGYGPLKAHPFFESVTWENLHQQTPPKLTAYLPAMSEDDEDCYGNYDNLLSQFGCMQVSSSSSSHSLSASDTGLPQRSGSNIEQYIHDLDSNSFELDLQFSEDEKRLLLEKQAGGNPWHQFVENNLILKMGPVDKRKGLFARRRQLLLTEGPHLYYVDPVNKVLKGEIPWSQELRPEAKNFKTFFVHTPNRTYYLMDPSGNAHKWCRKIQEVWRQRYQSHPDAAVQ
Sequence of Tyrosine-protein kinase Yes (P07947 whole entry): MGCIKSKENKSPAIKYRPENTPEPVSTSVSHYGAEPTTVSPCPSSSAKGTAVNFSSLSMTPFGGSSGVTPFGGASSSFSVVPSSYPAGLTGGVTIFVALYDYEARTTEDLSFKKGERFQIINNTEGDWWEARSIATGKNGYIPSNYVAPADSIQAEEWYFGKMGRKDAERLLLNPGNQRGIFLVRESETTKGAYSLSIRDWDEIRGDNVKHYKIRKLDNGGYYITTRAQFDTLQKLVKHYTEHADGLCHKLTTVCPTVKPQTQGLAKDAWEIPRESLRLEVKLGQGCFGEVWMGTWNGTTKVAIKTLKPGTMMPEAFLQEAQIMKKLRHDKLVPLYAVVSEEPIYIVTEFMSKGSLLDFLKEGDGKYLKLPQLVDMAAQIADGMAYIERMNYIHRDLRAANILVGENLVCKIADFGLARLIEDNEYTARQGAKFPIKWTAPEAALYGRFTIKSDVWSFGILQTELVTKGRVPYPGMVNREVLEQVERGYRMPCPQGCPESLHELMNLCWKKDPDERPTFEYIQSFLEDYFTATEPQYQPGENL

## CN1CCC(COc2cc(OC3CCOCC3)c3c(Nc4c(Cl)ccc5c4OCO5)ncnc3c2)CC1
[1]
  IC50: 300 nM
[2]
  Vdss: 38 L/kg
[3]
  AUC(0-t) at 24 h: 31000 ng·h/mL
[4]
  clearance: 132 mL/min/kg
[5]
  IC50: 2000 nM
[6]
  T1/2: 22 h
[7]
  bioavailability: 93%
[8]
  Vd: 23.4 L/kg
[9]
  IC50: 6 nM
[10]
  bioavailability: 57%

## Clc1ccc2c(c1Nc1ncnc3cc(OCCCN4CCCC4)cc(OC4CCOCC4)c13)OCO2
[11]
  IC50: 3 nM
[12]
  Papp A→B: > 1 ×10⁻⁶ cm/s
[13]
  IC50: 37 µM
[1]
  IC50: 150 nM
[14]
  Vd: 38 L/kg
[15]
  logD: 2.3
[16]
  pKa: 9.5
[3]
  AUC(0-t) at 24 h: 13000 ng·h/mL
[17]
  IC50: 270 nM
[18]
  IC50: 8.9 µM
[19]
  fraction unbound: 0.16
[20]
  IC50: > 10 µM
[21]
  half-life: 210 min
[22]
  bioavailability: 60%
[23]
  clearance: 15 mL/min/kg
[5]
  IC50: 2500 nM
[24]
  IC50: > 10 µM
[25]
  IC50: > 10 µM
[26]
  IC50: > 10 µM
[27]
  half-life: 1740 min
[28]
  IC50: > 33 µM
[29]
  IC50: > 10 µM
[30]
  inhibition in vivo at 10 mg/kg/day: 90%
[9]
  IC50: < 4 nM
[31]
  IC50: > 10 µM
[32]
  clearance: 48.3 mL/min/kg
[33]
  IC50: > 10 µM
[34]
  IC50: > 10 µM
[35]
  Vd: 15 L/kg
[36]
  fraction unbound: 0.17
[37]
  solubility: 1000 µM (≈ 527 µg/mL)
[10]
  bioavailability: 85%
[38]
  IC50: > 10 µM

## CN1CCN(CCOc2cc(OC3CCOCC3)c3c(Nc4c(Cl)ccc5c4OCO5)ncnc3c2)CC1 [SARACATINIB]
[39]
  IC50: 10 µM
[12]
  Papp A→B: > 30 ×10⁻⁶ cm/s
[13]
  IC50: > 10 µM
[1]
  IC50: 140 nM
[40]
  half-life: 300 min
[41]
  half-life: 2400 min
[14]
  Vd: 11.6 L/kg
[15]
  logD: 2.9
[16]
  pKa: 7.98
[42]
  IC50: > 5 µM
[3]
  AUC(0-t) at 24 h: 12000 ng·h/mL
[17]
  IC50: 840 nM
[43]
  inhibition at 1 µM: 70%
[44]
  solubility: 240 µM (≈ 130 µg/mL)
[18]
  IC50: > 10 µM
[19]
  fraction unbound: 0.13
[20]
  IC50: > 10 µM
[45]
  clearance: 20 mL/min/kg
[46]
  IC50: > 5 µM
[23]
  clearance: 11.7 mL/min/kg
[5]
  IC50: 20900 nM
[47]
  IC50: 14 µM
[25]
  IC50: > 10 µM
[26]
  IC50: > 10 µM
[27]
  half-life: 420 min
[28]
  IC50: > 100 µM
[48]
  inhibition in vivo at 20 mg/kg/day: > 80%
[49]
  Vd: 10 L/kg
[50]
  clearance: 16.7 mL/min/kg
[51]
  fraction unbound: 0.09
[52]
  bioavailability: 79%
[29]
  IC50: 10 µM
[53]
  inhibition in vivo at 20 mg/kg/day: > 80%
[54]
  bioavailability: 92%
[31]
  IC50: > 10 µM
[55]
  Vd: 10 L/kg
[33]
  IC50: > 10 µM
[56]
  inhibition in vivo at 6 mg/kg/day: > 95%
[34]
  IC50: > 10 µM
[36]
  fraction unbound: 0.14
[57]
  half-life: 300 min
[58]
  IC50: 220 nM
[10]
  bioavailability: > 50%
[38]
  IC50: > 10 µM
